Where “and” joins values, the source holds several entries; their conditions need not be identical. Equal entries are not always repeated.
Assays:
[1] = Tissue distribution after oral administration of MO and SMO extract; assay type: in vivo, SD rats; conditions: rat; 0.25, 1, 3 and 6 h after oral MO or SMO extract 40 g/kg
Method: (§1) For LC-MS/MS analysis, data acquisition and instrument control were performed using MassLynx 4.1 software (Waters Corp., Milford, MA, USA). The analysis column was an Acquity UPLC HSS T3 column (100 mm × 2.1 mm, 1.8 μm, Waters) with a temperature of 40°C. The mobile phase was acetonitrile containing 0.1% formic acid (A) and 0.1% formic acid aqueous solution (B). The elution gradient was 0.00–0.50 min with 2% B; 0.51–5.00 min with 2%–30% B; and 5.01–7.00 min with 40% B. The flow rate was 0.2 mL/min.
(§2) The Waters triple quadruple mass spectrometer (Xevo TQD, Waters Corp., Milford, MA, USA) equipped with an electrospray ionization source (ESI) was used in negative ion mode. The desolvation gas was nitrogen with a flow rate of 500 L/h at a temperature of 250°C. All detected compounds were measured in multiple reaction monitoring (MRM) mode.
The whole tissue was cut into pieces and homogenized with ice-cold 0.9% (m/v) sodium chloride solution (1 : 9, w/v). Using 50 μL of tissue homogenate, the tissue samples were prepared in the same way as the plasma samples.
MO and SMO ethanol extract (40 g/kg) was orally administered to SD rats (weight, 180–220 g, n = 6), at 0.25, 1, 3, and 6 h, respectively. […]

[2] = Pharmacokinetics in rat plasma after oral administration of MO and SMO extract (UPLC-MS/MS); assay type: in vivo, Sprague-Dawley (SD) rats; conditions: for Cmax: male, Sprague-Dawley, rat, plasma, po, 40 g/kg; for Cmax / AUC (0-t) / AUC (0-∞) / CL/F / MRT (0-t) / T max / V/F / t1/2z: n = 6
Method: as §1, §2
10 μL of IS working solution and 400 μL of methanol were added to 100 μL plasma. The solution was vortexed for 10 min and then centrifuged at 12,000 rpm for 5 min. The supernatant was shifted to another centrifugation tube and dried with nitrogen at 37°C. The residue was redissolved in 100 μL acetonitrile and centrifuged for 5 min at 12,000 rpm. Five microliters of supernatant was drawn and analyzed by UPLC-MS/MS.
The SD rats (6, male) were housed at 22 ± 2°C and fasted for 12 h with drinking water available ad libitum. MO and SMO ethanol extract were orally administered at a dose of 40 g/kg (equivalent to 6.44 and 3.95 mg/kg of monotropein, 0.088 and 0.091 mg/kg of rubiadin, and 0.174 and 0.178 mg/kg of rubiadin 1-methyl ether). Blood samples (0.5 mL) were collected from the venous plexus of the eye socket at 0.083, 0.25, 0.5, 1.0, 1.5, 2.0, 2.5, 4.0, 6.0, 12.0, and 24 h under anesthesia. Then, the blood samples were centrifuged at 4500 rpm for 10 min, and then the plasma was immediately transferred to new tubes and stored at −80°C until analysis. The pharmacokinetic parameters were calculated using DAS software (3.0 version, China Food and Drug Administration) based on noncompartmental method. All data were recorded as mean ± SD.

Q: With `O=C(O)C1=CO[C@@H](O[C@@H]2O[C@H](CO)[C@@H](O)[C@H](O)[C@H]2O)[C@H]2[C@@H]1C=C[C@]2(O)CO` [Monotropein, monotropein] as the molecule, how does the “Concentration in lung tissue” value [1] read?
A: could not be quantified

Q: And the Cmax ([2]; oral MO extract 40 g/kg)?
A: 23.3 ± 0.764 ng/mL

Q: And the Cmax ([2]; oral SMO extract 40 g/kg)?
A: 23.3 ± 0.676 ng/mL

Q: And the “Shape of plasma concentration-time curve” value ([2]; oral MO and SMO extract 40 g/kg)?
A: obvious double-peak phenomenon

Q: And the “AUC (0-t)” value ([2]; oral MO extract 40 g/kg)?
A: 44.22 ± 0.932 μg/L ∗ h

Q: And the “AUC (0-∞)” value ([2]; oral MO extract 40 g/kg)?
A: 48.952 ± 1.559 μg/L ∗ h

Q: And the CL/F ([2]; oral MO extract 40 g/kg)?
A: 0.818 ± 0.265 L/g/h

Q: And the “MRT (0-t)” value ([2]; oral MO extract 40 g/kg)?
A: 3.863 ± 0.184 H

Q: What about the T max ([2]; oral MO extract 40 g/kg) of the same molecule?
A: 1.0 H and 1.0 ± 0.00 H

Q: What about the V/F ([2]; oral MO extract 40 g/kg) of the same molecule?
A: 14.447 ± 2.143 L/g

Q: And the t1/2z ([2]; oral MO extract 40 g/kg)?
A: 12.291 ± 2.09 H

Q: And the “AUC (0-t)” value ([2]; oral SMO extract 40 g/kg)?
A: 26.941 ± 1.423 μg/L ∗ h

Q: And the “AUC (0-∞)” value ([2]; oral SMO extract 40 g/kg)?
A: 27.045 ± 1.338 μg/L ∗ h

Q: And the CL/F ([2]; oral SMO extract 40 g/kg)?
A: 1.482 ± 0.750 L/g/h

Q: What about the “MRT (0-t)” value ([2]; oral SMO extract 40 g/kg) of the same molecule?
A: 1.686 ± 0.025 H

Q: What about the T max ([2]; oral SMO extract 40 g/kg) of the same molecule?
A: 0.5 H and 0.5 ± 0.00 H

Q: What about the V/F ([2]; oral SMO extract 40 g/kg) of the same molecule?
A: 12.239 ± 9.027 L/g

Q: And the t1/2z ([2]; oral SMO extract 40 g/kg)?
A: 5.611 ± 3.958 H

From PMC7036132, “Effects of the Salt-Processing Method on the Pharmacokinetics and Tissue Distribution of Orally Administered Morinda officinalis How. Extract” (Journal of Analytical Methods in Chemistry, 2020)
